# Where two headings read alike, the source gives them in different places.
# Tests used:
# [1] = system: ben-1 mutant (ECA882) C. elegans; experiment: microbe, parasite or virus in culture; conditions: Caenorhabditis elegans; for viability at 1 µM / viability at 2 µM / viability at 3.9 µM / viability at 15.6 µM / viability at 31.3 µM / viability at 62.5 µM / viability at 125 µM / viability at 250 µM / viability at 500 µM / viability at 1000 µM: read-out: C. elegans ben-1(e1880) development/viability
# Outline: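 L1 larvae (~2 worms/μL in M9) in liquid NGM with 2-fold concentrated E. coli HB101, compound at 1% DMSO, 6 days at 20 °C shaking 165 rpm. Well images scored as summed worm-associated pixels, normalized to DMSO controls; relative viability averaged over at least three biological replicates.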
# [2] = biological target: B. taurus (heart) complex I (Bos taurus, UniProt P03887+P17694+P42026); experiment: biochemical; assay type: biochemical; conditions: for IC50: B. taurus heart mitochondria, read-out: B. taurus Complex I IC50; for activity at 0.0001 µM / activity at 0.0005 µM / activity at 0.001 µM / activity at 0.0025 µM / activity at 0.005 µM / activity at 0.013 µM / activity at 0.025 µM / activity at 0.063 µM / activity at 0.125 µM / activity at 0.313 µM / activity at 0.625 µM / activity at 1.5 µM / activity at 3 µM / activity at 15 µM / activity at 37.5 µM / activity at 75 µM: read-out: B. taurus mitochondrial complex I activity; for Log IC50 B. taurus complex I: log10 of IC50 in µM, B. taurus mitochondria
# Outline: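 Complex I activity followed as DCIP reduction (600 nm, 30 s reads, 15 min) with 80 μM NADH and 60 μM decylubiquinone in 25 mM KPi pH 7.5 containing 2 μM antimycin A and 2 mM KCN. Freeze-thawed mouse or bovine heart mitochondria at 0.2 mg/mL; initial-rate percent of solvent control, single-point 100 μM or dose-response.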
# [3] = system: L1 wild-type C. elegans; conditions: for Screen "Hit": 50 μM
# [4] = system: L1 wild-type C. elegans; experiment: microbe, parasite or virus in culture; conditions: Caenorhabditis elegans, read-out: C. elegans KCN Survival Assay LC50, estimated from fitted dose-response curves; mean of at least two biological replicates
# [5] = in vitro; conditions: human; for viability at 2 days, 3.13 µM / viability at 2 days, 6.25 µM / viability at 2 days, 12.5 µM / viability at 2 days, 25 µM / viability at 2 days, 50 µM / viability at 2 days, 100 µM: HEK293 cells (Flp-In-293), HEK293 viability
# [6] = read-out: C. elegans (ben-1) Development & Viability Assay LC50
# [7] = read-out: C. elegans ben-1 log10 LC50 (converted)
# [8] = Dose 0.2 µM, mean of at least three biological replicates
# Chain of B. taurus (heart) complex I (P03887 whole entry): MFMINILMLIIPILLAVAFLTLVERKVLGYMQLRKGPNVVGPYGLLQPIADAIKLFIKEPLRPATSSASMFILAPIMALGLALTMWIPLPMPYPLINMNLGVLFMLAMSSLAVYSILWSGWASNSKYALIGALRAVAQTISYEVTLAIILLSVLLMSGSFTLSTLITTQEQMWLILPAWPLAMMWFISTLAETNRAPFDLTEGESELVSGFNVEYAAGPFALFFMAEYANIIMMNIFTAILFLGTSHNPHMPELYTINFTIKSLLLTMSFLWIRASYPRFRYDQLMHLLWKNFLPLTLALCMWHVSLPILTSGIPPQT
# Chain of B. taurus (heart) complex I (P17694 34-463): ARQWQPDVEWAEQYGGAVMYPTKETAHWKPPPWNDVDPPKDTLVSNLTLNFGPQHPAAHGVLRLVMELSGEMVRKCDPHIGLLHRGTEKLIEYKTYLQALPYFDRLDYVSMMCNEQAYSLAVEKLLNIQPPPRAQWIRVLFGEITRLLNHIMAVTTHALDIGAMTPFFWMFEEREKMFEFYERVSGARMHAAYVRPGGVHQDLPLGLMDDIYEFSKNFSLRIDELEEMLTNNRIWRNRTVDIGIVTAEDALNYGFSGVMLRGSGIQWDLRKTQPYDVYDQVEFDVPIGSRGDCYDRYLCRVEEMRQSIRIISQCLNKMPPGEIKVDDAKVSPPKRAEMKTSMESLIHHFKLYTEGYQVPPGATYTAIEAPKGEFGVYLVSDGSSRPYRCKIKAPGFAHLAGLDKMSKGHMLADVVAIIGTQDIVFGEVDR
# Chain of B. taurus (heart) complex I (P42026 38-216): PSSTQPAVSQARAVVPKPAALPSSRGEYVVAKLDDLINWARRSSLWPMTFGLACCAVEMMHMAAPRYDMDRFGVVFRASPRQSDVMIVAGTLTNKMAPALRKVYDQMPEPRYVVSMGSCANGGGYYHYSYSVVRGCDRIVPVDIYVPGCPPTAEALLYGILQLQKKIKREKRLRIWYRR
compound,measurement,setting,value
FC(F)(F)c1cccc(OCCCCn2cnc3ccccc32)c1 [Compound 7925004],LC50,[1]; [6],47.3 µM
same,viability at 1 µM,[1],93.7%
same,viability at 2 µM,[1],95.4%
same,viability at 3.9 µM,[1],96.9%
same,viability at 15.6 µM,[1],76.5%
same,viability at 31.3 µM,[1],75.3%
same,viability at 62.5 µM,[1],28%
same,viability at 125 µM,[1],3.4%
same,viability at 250 µM,[1],2.3%
same,viability at 500 µM,[1],2.6%
same,viability at 1000 µM,[1],1.1%
same,LC50,[1]; [7],47.3 µM
same,IC50,[2]; estimated from fitted dose-response curves,13 µM
same,activity at 0.0001 µM,[2],92.5%
same,activity at 0.0005 µM,[2],92.1%
same,activity at 0.001 µM,[2],90.6%
same,activity at 0.0025 µM,[2],88.9%
same,activity at 0.005 µM,[2],89.8%
same,activity at 0.013 µM,[2],84.7%
same,activity at 0.025 µM,[2],87.1%
same,activity at 0.063 µM,[2],85.1%
same,activity at 0.125 µM,[2],81.8%
same,activity at 0.313 µM,[2],83.3%
same,activity at 0.625 µM,[2],88.4%
same,activity at 1.5 µM,[2],81.4%
same,activity at 3 µM,[2],76.3%
same,activity at 15 µM,[2],35.9%
same,activity at 37.5 µM,[2],9.66%
same,activity at 75 µM,[2],1.95%
same,Log IC50 B. taurus complex I,[2],1.11 µM
same,"Screen ""Hit""","[3]; KCN survival assay, hit = relative motility below 0.25",Y (hits were identified as compounds that reduced relative motility below 0.25 (75% reduction))
same,C. elegans KCN Survival,[3]; [8],1.053
same,C. elegans KCN Survival,[3]; Dose 0.39 µM,1.068
same,C. elegans KCN Survival,[3]; Dose 1.56 µM,1.004
same,C. elegans KCN Survival,[3]; Dose 3.13 µM,1.026
same,C. elegans KCN Survival,[3]; Dose 6.25 µM,0.948
same,C. elegans KCN Survival,[3]; Dose 12.5 µM,0.632
same,C. elegans KCN Survival,[3]; Dose 25 µM,0.094
same,C. elegans KCN Survival,[3]; Dose 50 µM,0.092
same,C. elegans KCN Survival,[3]; Dose 100 µM,0.126
same,LC50,[4],13.9 µM
same,CC50 at 2 days,[5],29.2 µM
same,"viability at 2 days, 3.13 µM",[5],99.3%
same,"viability at 2 days, 6.25 µM",[5],99.5%
same,"viability at 2 days, 12.5 µM",[5],100%
same,"viability at 2 days, 25 µM",[5],61.3%
same,"viability at 2 days, 50 µM",[5],16.2%
same,"viability at 2 days, 100 µM",[5],6.8%
CCc1cc(OCCn2cnc3ccccc32)ccc1Cl [Compound 7925288],LC50,[1]; [6],55.2 µM
same,viability at 1 µM,[1],100%
same,viability at 2 µM,[1],96%
same,viability at 3.9 µM,[1],96.4%
same,viability at 15.6 µM,[1],94.7%
same,viability at 31.3 µM,[1],88%
same,viability at 62.5 µM,[1],39.9%
same,viability at 125 µM,[1],3.8%
same,viability at 250 µM,[1],3.3%
same,viability at 500 µM,[1],2.9%
same,viability at 1000 µM,[1],1.8%
same,LC50,[1]; [7],55.2 µM
same,IC50,[2],5.7 µM
same,activity at 0.0001 µM,[2],89.8%
same,activity at 0.0005 µM,[2],91.3%
same,activity at 0.001 µM,[2],88.8%
same,activity at 0.0025 µM,[2],86.3%
same,activity at 0.005 µM,[2],84.5%
same,activity at 0.013 µM,[2],89.2%
same,activity at 0.025 µM,[2],82.7%
same,activity at 0.063 µM,[2],84.2%
same,activity at 0.125 µM,[2],82.8%
same,activity at 0.313 µM,[2],79.8%
same,activity at 0.625 µM,[2],84.6%
same,activity at 1.5 µM,[2],75.4%
same,activity at 3 µM,[2],61.1%
same,activity at 15 µM,[2],17.7%
same,activity at 37.5 µM,[2],2.74%
same,activity at 75 µM,[2],1.27%
same,Log IC50 B. taurus complex I,[2],0.76 µM
same,"Screen ""Hit""",[3]; hit = relative motility below 0.25 3 hours after removal of KCN,Y (hits were identified as compounds that reduced relative motility below 0.25 (75% reduction))
same,C. elegans KCN Survival,[3]; [8],1.082
same,C. elegans KCN Survival,[3]; Dose 0.39 µM,1.088
same,C. elegans KCN Survival,[3]; Dose 1.56 µM,1.105
same,C. elegans KCN Survival,[3]; Dose 3.13 µM,1.186
same,C. elegans KCN Survival,[3]; Dose 6.25 µM,1.064
same,C. elegans KCN Survival,[3]; Dose 12.5 µM,0.930
same,C. elegans KCN Survival,[3]; Dose 25 µM,0.276
same,C. elegans KCN Survival,[3]; Dose 50 µM,0.146
same,C. elegans KCN Survival,[3]; Dose 100 µM,0.159
same,LC50,[4],19.1 µM
same,CC50 at 2 days,"[5]; HEK293 Cell Viability Assay LC50, HEK293 cells, estimated from fitted dose-response curves",34.1 µM
same,"viability at 2 days, 3.13 µM",[5],91.4%
same,"viability at 2 days, 6.25 µM",[5],96.8%
same,"viability at 2 days, 12.5 µM",[5],93.6%
same,"viability at 2 days, 25 µM",[5],81.1%
same,"viability at 2 days, 50 µM",[5],8.7%
same,"viability at 2 days, 100 µM",[5],7.1%

# Source: publication PMC11079024, “Identification of a family of species-selective complex I inhibitors as potential anthelmintics” (Nature Communications, 2024)
